Assay results taken from PubChem BioAssay AID248 (DTP/NCI, 2004).
“And” between values parts separate entries of the source, which are not always exact repeats. Identical values can stand only once. Toxic doses and inconclusive results are not listed.

Tested on: L1210 leukemia ip in BDF1 mice, survival T/C
Assay: NCI In Vivo Anticancer Drug Screen. Data for tumor model L1210 Leukemia (intraperitoneal) in B6D2F1 (BDF1) mice
Conditions: endpoint: mean survival time, higher = longer survival
How it was run: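 Ratio derived from survival: compound-dosed mice over vehicle-dosed mice, all bearing a transplantable tumor.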

[1] = dose: 50.0 mg/kg/injection, schedule: Q01DX001 (ip), vehicle: carboxymethylcellulose (CMC)
[2] = dose: 100.0 mg/kg/injection, schedule: Q04DX003 (ip), vehicle: saline
[3] = dose: 200.0 mg/kg/injection, schedule: Q04DX003 (ip), vehicle: saline
[4] = dose: 100.0 mg/kg/injection, schedule: Q01DX009 (ip), vehicle: Klucel (hydroxypropylcellulose) (HPC)
[5] = dose: 200.0 mg/kg/injection, schedule: Q01DX009 (ip), vehicle: Klucel (hydroxypropylcellulose) (HPC)
[6] = dose: 400.0 mg/kg/injection, schedule: Q01DX009 (ip), vehicle: Klucel (hydroxypropylcellulose) (HPC)
[7] = dose: 100.0 mg/kg/injection, schedule: Q01DX001 (ip), vehicle: Klucel (hydroxypropylcellulose) (HPC)
[8] = dose: 200.0 mg/kg/injection, schedule: Q01DX001 (ip), vehicle: Klucel (hydroxypropylcellulose) (HPC)
[9] = dose: 400.0 mg/kg/injection, schedule: Q01DX001 (ip), vehicle: Klucel (hydroxypropylcellulose) (HPC)

## CCC(C(C)N1CC(=O)NC(=O)C1)N1CC(=O)NC(=O)C1 (stereo not given)
dose: 0.5 mg/kg/injection, schedule: Q01DX009 (ip), vehicle: Klucel (hydroxypropylcellulose) (HPC)
  T/C: 154 % of control
dose: 1.0 mg/kg/injection, schedule: Q04DX003 (ip), vehicle: Klucel (hydroxypropylcellulose) (HPC)
  T/C: 120 % of control
dose: 2.0 mg/kg/injection, schedule: Q01DX009 (ip), vehicle: Klucel (hydroxypropylcellulose) (HPC)
  T/C: 102 % of control
dose: 2.0 mg/kg/injection, schedule: Q04DX003 (oral), vehicle: Klucel (hydroxypropylcellulose) (HPC)
  T/C: 123 % of control
dose: 4.0 mg/kg/injection, schedule: Q01DX009 (ip), vehicle: Klucel (hydroxypropylcellulose) (HPC)
  T/C: 91 % of control
dose: 4.0 mg/kg/injection, schedule: Q04DX003 (ip), vehicle: Klucel (hydroxypropylcellulose) (HPC)
  T/C: 203 % of control
dose: 8.0 mg/kg/injection, schedule: Q04DX003 (ip), vehicle: Klucel (hydroxypropylcellulose) (HPC)
  T/C: 219 % of control
dose: 8.0 mg/kg/injection, schedule: Q04DX003 (oral), vehicle: Klucel (hydroxypropylcellulose) (HPC)
  T/C: 161 % of control
dose: 16.0 mg/kg/injection, schedule: Q04DX003 (ip), vehicle: Klucel (hydroxypropylcellulose) (HPC)
  T/C: 96 % of control
dose: 32.0 mg/kg/injection, schedule: Q04DX003 (ip), vehicle: Klucel (hydroxypropylcellulose) (HPC)
  T/C: 119 % of control
dose: 64.0 mg/kg/injection, schedule: Q04DX003 (oral), vehicle: Klucel (hydroxypropylcellulose) (HPC)
  T/C: 93 % of control

## CCCCCCCCCCCCSC1=NCCN1
dose: 25.0 mg/kg/injection, schedule: Q04DX003 (ip), vehicle: Klucel (hydroxypropylcellulose) (HPC)
  T/C: 100 % of control
dose: 45.0 mg/kg/injection, schedule: Q04DX003 (ip), vehicle: Klucel (hydroxypropylcellulose) (HPC)
  T/C: 95 % of control
dose: 87.5 mg/kg/injection, schedule: Q04DX003 (ip), vehicle: Klucel (hydroxypropylcellulose) (HPC)
  T/C: 100 % of control
dose: 88.0 mg/kg/injection, schedule: Q04DX003 (ip), vehicle: Klucel (hydroxypropylcellulose) (HPC)
  T/C: 103 % of control

## CCN1c2ccccc2S(=O)c2cc([N+](=O)[O-])ccc21 (stereo not given)
[1]
  T/C: 93 % of control
dose: 100.0 mg/kg/injection, schedule: Q01DX001 (ip), vehicle: carboxymethylcellulose (CMC)
  T/C: 87 % of control
dose: 200.0 mg/kg/injection, schedule: Q01DX001 (ip), vehicle: carboxymethylcellulose (CMC)
  T/C: 96 % of control
dose: 400.0 mg/kg/injection, schedule: Q01DX001 (ip), vehicle: carboxymethylcellulose (CMC)
  T/C: 98 % of control

## Cc1ccc[n+]([O-])c1N=[N+]=[N-]
[2]
  T/C: 102 % of control
[3]
  T/C: 102 % of control
dose: 400.0 mg/kg/injection, schedule: Q04DX003 (ip), vehicle: saline
  T/C: 98 % of control

## O=C(Nc1ccc(C2=NCCN2)cc1)c1ccc([N+](=O)[O-])c(C(=O)Nc2ccc(C3=NCCN3)cc2)c1
dose: 10.0 mg/kg/injection, schedule: Q01DX Z (ip), vehicle: carboxymethylcellulose (CMC)
  T/C: 108 % of control
dose: 19.0 mg/kg/injection, schedule: Q01DX Z (ip), vehicle: carboxymethylcellulose (CMC)
  T/C: 108 % of control

## Cc1cc(=O)[nH]c(NCC(=O)O)n1
dose: 50.0 mg/kg/injection, schedule: Q04DX002 (ip), vehicle: saline
  T/C: 101 % of control
dose: 100.0 mg/kg/injection, schedule: Q04DX002 (ip), vehicle: saline
  T/C: 101 % of control
dose: 200.0 mg/kg/injection, schedule: Q04DX002 (ip), vehicle: saline
  T/C: 101 % of control

## Cc1nc2c(=O)[nH]n(C)c2nc1C
dose: 100.0 mg/kg/injection, schedule: Q01DX009 (ip), vehicle: saline with Tween-80
  T/C: 97 % of control
dose: 200.0 mg/kg/injection, schedule: Q01DX009 (ip), vehicle: saline with Tween-80
  T/C: 95 % of control
dose: 400.0 mg/kg/injection, schedule: Q01DX009 (ip), vehicle: saline with Tween-80
  T/C: 95 % of control

## CCCCCCCCCC(=O)CC
[4]
  T/C: 104 % of control
dose: 100.0 mg/kg/injection, schedule: Q04DX003 (ip), vehicle: Klucel (hydroxypropylcellulose) (HPC)
  T/C: 110 % of control
[5]
  T/C: 96 % of control
dose: 200.0 mg/kg/injection, schedule: Q04DX003 (ip), vehicle: Klucel (hydroxypropylcellulose) (HPC)
  T/C: 97 % of control
[6]
  T/C: 102 % of control
dose: 400.0 mg/kg/injection, schedule: Q04DX003 (ip), vehicle: Klucel (hydroxypropylcellulose) (HPC)
  T/C: 93 % of control

## N#Cc1cccc(NC(=O)COc2cccc(Cl)c2)c1
[7]
  T/C: 94 % of control
[8]
  T/C: 87 % of control
[9]
  T/C: 90 % of control

## CN(C)CC1CCCCN1 (stereo not given)
[2]
  T/C: 93 % of control
[3]
  T/C: 97 % of control

## CC(Cl)C(=O)OC(C)(C)Cl (stereo not given)
dose: 75.0 mg/kg/injection, schedule: Q01DX001 (ip), vehicle: carboxymethylcellulose (CMC)
  T/C: 104 % of control
dose: 150.0 mg/kg/injection, schedule: Q01DX001 (ip), vehicle: carboxymethylcellulose (CMC)
  T/C: 107 % of control

## CC(/C=C/c1ccccc1)=N\O
dose: 100.0 mg/kg/injection, schedule: Q01DX009 (ip), vehicle: saline sonified
  T/C: 91 % of control
dose: 200.0 mg/kg/injection, schedule: Q01DX009 (ip), vehicle: saline sonified
  T/C: 94 % of control
dose: 400.0 mg/kg/injection, schedule: Q01DX009 (ip), vehicle: saline sonified
  T/C: 100 % of control

## CCCCCCCCCCCCOc1ccccc1OC
[7]
  T/C: 89 % of control
[8]
  T/C: 90 % of control
[9]
  T/C: 95 % of control

## CCOC(=O)NCC(C)(CCN1CCCCC1)c1cccc2ccccc12 (stereo not given)
dose: 6.25 mg/kg/injection, schedule: Q04DX003 (ip), vehicle: saline with Tween-80
  T/C: 104 % of control
dose: 12.5 mg/kg/injection, schedule: Q04DX003 (ip), vehicle: saline with Tween-80
  T/C: 98 % of control
dose: 25.0 mg/kg/injection, schedule: Q04DX003 (ip), vehicle: saline with Tween-80
  T/C: 97 % of control

## CCOC(=O)c1cc(=O)c2c(ccc3cc(OC)ccc32)[nH]1
dose: 6.25 mg/kg/injection, schedule: Q04DX002 (ip), vehicle: carboxymethylcellulose (CMC)
  T/C: 101 % of control and 89 % of control
dose: 12.5 mg/kg/injection, schedule: Q01DX001 (ip), vehicle: carboxymethylcellulose (CMC)
  T/C: 105 % of control
dose: 12.5 mg/kg/injection, schedule: Q01DX009 (ip), vehicle: carboxymethylcellulose (CMC)
  T/C: 94 % of control and 105 % of control
dose: 12.5 mg/kg/injection, schedule: Q04DX003 (ip), vehicle: carboxymethylcellulose (CMC)
  T/C: 100 % of control
dose: 25.0 mg/kg/injection, schedule: Q01DX001 (ip), vehicle: carboxymethylcellulose (CMC)
  T/C: 105 % of control
dose: 25.0 mg/kg/injection, schedule: Q01DX009 (ip), vehicle: carboxymethylcellulose (CMC)
  T/C: 97 % of control and 98 % of control
dose: 25.0 mg/kg/injection, schedule: Q04DX003 (ip), vehicle: carboxymethylcellulose (CMC)
  T/C: 93 % of control
[1]
  T/C: 94 % of control
dose: 50.0 mg/kg/injection, schedule: Q01DX009 (ip), vehicle: carboxymethylcellulose (CMC)
  T/C: 94 % of control and 88 % of control
dose: 50.0 mg/kg/injection, schedule: Q04DX003 (ip), vehicle: carboxymethylcellulose (CMC)
  T/C: 100 % of control

## CC(C)=CC(=O)OCC[N+](C)(C)C
dose: 3.12 mg/kg/injection, schedule: Q01DX009 (ip), vehicle: saline
  T/C: 104 % of control
dose: 6.25 mg/kg/injection, schedule: Q01DX009 (ip), vehicle: saline
  T/C: 98 % of control
dose: 12.5 mg/kg/injection, schedule: Q01DX009 (ip), vehicle: saline
  T/C: 102 % of control and 109 % of control

## CCC(C)N=Cc1ccccc1O.CCC(C)N=Cc1ccccc1O.[Cu] (stereo not given)
dose: 9.5 mg/kg/injection, schedule: Q01DX001 (ip), vehicle: other
  T/C: 100 % of control
dose: 19.0 mg/kg/injection, schedule: Q01DX001 (ip), vehicle: other
  T/C: 107 % of control
dose: 38.0 mg/kg/injection, schedule: Q01DX001 (ip), vehicle: other
  T/C: 100 % of control

## O=C(Nc1cccc(F)c1)Nc1ccc([N+](=O)[O-])cc1Cl
[4]
  T/C: 101 % of control
[5]
  T/C: 100 % of control
[6]
  T/C: 103 % of control

## O=C(COc1ccc(Cl)cc1)Nc1ccc[n+](Cc2ccc(S(=O)(=O)F)cc2)c1
[4]
  T/C: 105 % of control
[5]
  T/C: 101 % of control

## CNC/C(Cl)=N/S(=O)(=O)c1ccc(C)cc1
dose: 12.5 mg/kg/injection, schedule: Q04DX002 (ip), vehicle: other
  T/C: 106 % of control
dose: 25.0 mg/kg/injection, schedule: Q04DX002 (ip), vehicle: other
  T/C: 98 % of control
dose: 50.0 mg/kg/injection, schedule: Q04DX002 (ip), vehicle: other
  T/C: 95 % of control
dose: 50.0 mg/kg/injection, schedule: Q04DX002 (ip), vehicle: saline with Tween-80
  T/C: 96 % of control
dose: 100.0 mg/kg/injection, schedule: Q04DX002 (ip), vehicle: saline with Tween-80
  T/C: 99 % of control
dose: 200.0 mg/kg/injection, schedule: Q04DX002 (ip), vehicle: saline with Tween-80
  T/C: 96 % of control
dose: 400.0 mg/kg/injection, schedule: Q04DX002 (ip), vehicle: saline with Tween-80
  T/C: 108 % of control
